Structures can show the parent of a compound that is named as a salt. Where two headings read alike, the source gives them in different places.
Key:
[1] = biological target: T1, SARS-CoV-2 PLpro (nsp3 1564–1878) (Severe acute respiratory syndrome coronavirus 2, UniProt P0DTD1); assay: biochemical; parameters: FRET-quenched peptide (Pro3) cleavage by PLpro, 10 min pre-incubation, slope over 20 min, normalised to no-compound control; conditions: read-out: % of control remaining
[2] = biological target: T1, SARS-CoV-2 PLpro (nsp3 1564–1878); assay: biochemical; parameters: FRET-quenched peptide (Pro3) cleavage by PLpro, 10 min pre-incubation, slope over 20 min, normalised to no-compound control; conditions: read-out: % of control remaining; remark: listed apart in the source

CC(C)CC(=O)NCC(=O)O [N-Isovaleroylglycine]
remaining activity at 1.25 µM ([1]; Well no.=6643, low concentration screen): 110%
remaining activity at 3.75 µM ([2]; Well no.=6643, high concentration screen): 122%

CCCCC/C=C\C/C=C\CCCCCCCC(=O)NCC(=O)O [N-Linoleoylglycine]
remaining activity at 1.25 µM ([1]; Well no.=4595, low concentration screen): 95%
remaining activity at 3.75 µM ([2]; Well no.=4595, high concentration screen): 94.3%

CN1C[C@H](O)[C@@H](O)[C@H](O)[C@H]1CO [N-Methyl-1-deoxynojirimycin]
remaining activity at 1.25 µM ([1]; Well no.=1016, low concentration screen): 99.2%
remaining activity at 3.75 µM ([2]; Well no.=1016, high concentration screen): 98.3%

CN[C@H](CC(=O)O)C(=O)O [N-Methyl-D-aspartic acid]
remaining activity at 1.25 µM ([1]; Well no.=1020, low concentration screen): 103%
remaining activity at 3.75 µM ([2]; Well no.=1020, high concentration screen): 105%

CNC(=O)c1cc2c(cn1)[nH]c1ccccc12 [N-Methyl-beta-carboline-3-carboxamide]
remaining activity at 1.25 µM ([1]; Well no.=655, low concentration screen): 96.4%
remaining activity at 3.75 µM ([2]; Well no.=655, high concentration screen): 94.2%

CNCCc1ccc(O)c(O)c1 [N-Methyldopamine hydrochloride]
remaining activity at 1.25 µM ([1]; Well no.=693, low concentration screen): 90.9%
remaining activity at 3.75 µM ([2]; Well no.=693, high concentration screen): 91.2%

CN1CC(=O)NC1=O [N-Methylhydantoin]
remaining activity at 1.25 µM ([1]; Well no.=6395, low concentration screen): 95.6%
remaining activity at 3.75 µM ([2]; Well no.=6395, high concentration screen): 98.5%

CN(C)CC(=O)O [N-Methylsarcosine]
remaining activity at 1.25 µM ([1]; Well no.=6873, low concentration screen): 104%
remaining activity at 3.75 µM ([2]; Well no.=6873, high concentration screen): 102%

CCCCCCCC/C=C\CCCCCCCC(=O)NCCO [N-Oleoylethanolamine]
remaining activity at 1.25 µM ([1]; Well no.=1086, low concentration screen): 96.9%
remaining activity at 3.75 µM ([2]; Well no.=1086, high concentration screen): 94.6%

CCCCCCCC/C=C\CCCCCCCC(=O)NCC(=O)O [N-Oleoylglycine]
remaining activity at 1.25 µM ([1]; Well no.=5803, low concentration screen): 104%
remaining activity at 3.75 µM ([2]; Well no.=5803, high concentration screen): 106%

O=C(O)CNC(=O)C(=O)O [N-Oxalylglycine]
remaining activity at 1.25 µM ([1]; Well no.=5387, low concentration screen): 97.9%
remaining activity at 3.75 µM ([2]; Well no.=5387, high concentration screen): 92.4%

O=C(O)c1ccccc1Nc1ccccc1 [N-Phenylanthranilic acid]
remaining activity at 1.25 µM ([1]; Well no.=51, low concentration screen): 101%
remaining activity at 3.75 µM ([2]; Well no.=51, high concentration screen): 95.6%

CCCOC(=O)c1cc(O)c(O)c(O)c1 [N-Propyl gallate]
remaining activity at 1.25 µM ([1]; Well no.=3987, low concentration screen): 104%
remaining activity at 3.75 µM ([2]; Well no.=3987, high concentration screen): 102%

O=C(O)CCC(=O)N1CCC[C@H]1C(=O)O [N-Succinyl-L-proline]
remaining activity at 1.25 µM ([1]; Well no.=1506, low concentration screen): 89.9%
remaining activity at 3.75 µM ([2]; Well no.=1506, high concentration screen): 91.2%

CCCCCCCCC(=O)NCc1ccc(O)c(OC)c1 [N-Vanillylnonanamide]
remaining activity at 1.25 µM [1]: 96.7%
remaining activity at 3.75 µM [2]: 96.6%

CC(ONC(=O)c1cc(C(F)(F)F)cc(C(F)(F)F)c1)C(=O)Nc1ccc(Cl)cc1 (stereo not shown) [N-[2-(4-chloroanilino)-1-methyl-2-oxoethoxy]-3,5-bis(trifluoromethyl)benzamide]
remaining activity at 1.25 µM ([1]; Well no.=5698, low concentration screen): 101%
remaining activity at 3.75 µM ([2]; Well no.=5698, high concentration screen): 103%

Cc1ccc(F)cc1C(=O)Nc1ccc(C(=O)N2Cc3cccn3Cc3ccccc32)c(Cl)c1 [N-[3-chloro-4-(5H-pyrrolo[2,1-c][1,4]benzodiazepin-10(11H)-ylcarbonyl)phenyl]-5-fluoro-2-methylbenzamide]
remaining activity at 1.25 µM ([1]; Well no.=5601, low concentration screen): 103%
remaining activity at 3.75 µM ([2]; Well no.=5601, high concentration screen): 107%

CN(C)[C@@H]1CCc2[nH]c3ccc(NC(=O)c4ccc(F)cc4)cc3c2C1 [N-[(3R)-3-(dimethylamino)-2,3,4,9-tetrahydro-1H-carbazol-6-yl]-4-fluorobenzamide hydrochloride]
remaining activity at 1.25 µM ([1]; Well no.=6008, low concentration screen): 97.7%
remaining activity at 3.75 µM ([2]; Well no.=6008, high concentration screen): 95.9%

Nc1ccc(CNc2ncnc3c2ncn3[C@@H]2O[C@H](CO)[C@@H](O)[C@H]2O)cc1 [N-[(4-Aminophenyl)methyl]adenosine]
remaining activity at 1.25 µM ([1]; Well no.=8319, low concentration screen): 104%
remaining activity at 1.25 µM ([1]; Well no.=8895, low concentration screen): 102%
remaining activity at 3.75 µM ([2]; Well no.=8319, high concentration screen): 100%
remaining activity at 3.75 µM ([2]; Well no.=8895, high concentration screen): 99.6%

Cc1ccccc1C(C(=O)NC1CCCCC1)N(C(=O)Cn1ccnc1C)c1cccc(F)c1 (stereo not shown) [N-cyclohexyl-2-(N-(3-fluorophenyl)-2-(2-methyl-1H-imidazol-1-yl)acetamido)-2-(o-tolyl)acetamide]
remaining activity at 1.25 µM ([1]; Well no.=5600, low concentration screen): 93.6%
remaining activity at 3.75 µM ([2]; Well no.=5600, high concentration screen): 95.4%

O=C(Nc1cccc(C(F)(F)F)c1)Nc1cc(S(=O)(=O)NC2CC2)ccc1-c1ccsc1 [N-cyclopropyl-4-(thiophen-3-yl)-3-(3-(3-(trifluoromethyl)phenyl)ureido)benzenesulfonamide]
remaining activity at 1.25 µM ([1]; Well no.=5549, low concentration screen): 100%
remaining activity at 3.75 µM ([2]; Well no.=5549, high concentration screen): 103%

COc1nc(OCc2cccc(-c3ccccc3)c2C)ccc1CNCCN [N-deacetylated BMS-202]
remaining activity at 1.25 µM ([1]; Well no.=8458, low concentration screen): 102%
remaining activity at 3.75 µM ([2]; Well no.=8458, high concentration screen): 100%

C[C@@H]1c2cc(O)c(O)cc2CCN1C [N-methyl-R-salsolinol hydrobromide]
remaining activity at 1.25 µM ([1]; Well no.=830, low concentration screen): 99.6%
remaining activity at 3.75 µM ([2]; Well no.=830, high concentration screen): 101%

C[C@H](C#Cc1ccc(Cc2ccc(F)cc2)s1)N(O)C(N)=O [N-{(1R)-3-[5-(4-fluorobenzyl)-2-thienyl]-1-methyl-2-propynyl}-N-hydroxyurea]
remaining activity at 1.25 µM ([1]; Well no.=5434, low concentration screen): 99.4%
remaining activity at 3.75 µM ([2]; Well no.=5434, high concentration screen): 103%

CON(C)C(=O)[C@H](O)[C@H](Cc1ccccc1)NC(=O)c1cc2cc(Cl)ccc2[nH]1 [N-{(1S,2R)-1-benzyl-2-hydroxy-3-[methoxy(methyl)amino]-3-oxopropyl}-5-chloro-1H-indole-2-carboxamide]
remaining activity at 1.25 µM ([1]; Well no.=6057, low concentration screen): 100%
remaining activity at 3.75 µM ([2]; Well no.=6057, high concentration screen): 97.9%

CC(C)S(=O)(=O)N[C@H]1CCOC[C@@H]1c1ccc(-c2ccc(C#N)s2)cc1 [N-{(3R,4S)-3-[4-(5-cyano-2-thienyl)phenyl]tetrahydro-2H-pyran-4-yl}-2-propanesulfonamide]
remaining activity at 1.25 µM ([1]; Well no.=6010, low concentration screen): 100%
remaining activity at 3.75 µM ([2]; Well no.=6010, high concentration screen): 92.7%

COc1ccccc1N1CCN(CCCCN2C(=O)c3ccccc3C2=O)CC1 [NAN-190 (hydrobromide)]
remaining activity at 1.25 µM ([1]; Well no.=7191, low concentration screen): 98.5%
remaining activity at 3.75 µM ([2]; Well no.=7191, high concentration screen): 94.2%

COc1ccccc1N1CCN(CCCCN2C(=O)c3ccccc3C2=O)CC1 [NAN-190 hydrobromide]
remaining activity at 1.25 µM ([1]; Well no.=1141, low concentration screen): 97%
remaining activity at 3.75 µM ([2]; Well no.=1141, high concentration screen): 99.5%

CCOc1ccc(-n2c([C@@H](C)N(Cc3cccnc3)C(=O)Cc3ccc(F)c(C(F)(F)F)c3)nc3ncccc3c2=O)cc1 [NBI-74330]
remaining activity at 1.25 µM ([1]; Well no.=8611, low concentration screen): 108%
remaining activity at 3.75 µM ([2]; Well no.=8611, high concentration screen): 97.8%

NS(=O)(=O)c1cccc2c1c([N+](=O)[O-])cc1nc(O)c(O)nc12 [NBQX disodium]
remaining activity at 1.25 µM ([1]; Well no.=942, low concentration screen): 101%
remaining activity at 3.75 µM ([2]; Well no.=942, high concentration screen): 98%

O=C(O)/C=C/C(O)c1ccc(Cl)cc1 (stereo not shown) [NCS-356]
remaining activity at 1.25 µM ([1]; Well no.=807, low concentration screen): 102%
remaining activity at 3.75 µM ([2]; Well no.=807, high concentration screen): 101%

O=C(O)/C=C1\CCCc2ccccc2C1O (stereo not shown) [NCS-382]
remaining activity at 1.25 µM ([1]; Well no.=903, low concentration screen): 101%
remaining activity at 3.75 µM ([2]; Well no.=903, high concentration screen): 99.9%

CC(C)CCn1c(CN2CCN(C(=O)C3CC3)CC2)nc2c1c(=O)n(C)c(=O)n2C [NCT-501]
remaining activity at 1.25 µM ([1]; Well no.=8532, low concentration screen): 105%
remaining activity at 3.75 µM ([2]; Well no.=8532, high concentration screen): 98.9%

Cc1cc(C)nc(NC(=S)N2CCN(Cc3ccc(C(F)(F)F)cc3)CC2)c1 [NCT-503]
remaining activity at 1.25 µM ([1]; Well no.=8538, low concentration screen): 96.7%
remaining activity at 3.75 µM ([2]; Well no.=8538, high concentration screen): 93.8%

From publication PMC8286840, “Identifying SARS-CoV-2 antiviral compounds by screening for small molecule inhibitors of Nsp3 papain-like protease” (Biochemical Journal, 2021)
